Test results from patent US10448639B2, “Fungicidal pyrazoles” (FMC CORPORATION, priority 2009, dated 2019).

What was measured:
[1] = system: Puccinia recondita f. sp. tritici; experiment: Test I: wheat leaf rust, preventive spray on wheat seedlings, visual disease rating; conditions: for pest or weed control at 200 µg/mL: 192 h, read-out: Test I rating (% disease control)
Botrytis cinerea = experiment: Test B: tomato Botrytis, preventive spray on tomato seedlings, visual disease rating; conditions: for pest or weed control at 200 µg/mL: Botrytis cinerea, in Solanum lycopersicum, 120 h, read-out: Test B rating (% disease control)
Septoria tritici = experiment: Test G: wheat leaf blotch, preventive spray on wheat seedlings, visual disease rating; conditions: for pest or weed control at 200 µg/mL: Zymoseptoria tritici, in Triticum aestivum, 504 h, read-out: Test G rating (% disease control)
Alternaria solani = experiment: Test C: tomato early blight, preventive spray on tomato seedlings, visual disease rating; conditions: for pest or weed control at 200 µg/mL: Alternaria solani, in Solanum lycopersicum, 168 h, read-out: Test C rating (% disease control)
[2] = system: Erysiphe graminis f sp. tritici; experiment: Test J: wheat powdery mildew, preventive spray on wheat seedlings, visual disease rating; conditions: for pest or weed control at 200 µg/mL: Blumeria graminis, in Triticum aestivum, 192 h, read-out: Test J rating (% disease control)
Septoria nodorum = experiment: Test F: Septoria glume blotch, preventive spray on wheat seedlings, visual disease rating; conditions: for pest or weed control at 200 µg/mL: Parastagonospora nodorum, in Triticum aestivum, 192 h, read-out: Test F rating (% disease control)
[3] = system: Puccinia recondita f. sp. tritici; experiment: Test H: wheat leaf rust, curative spray on inoculated wheat seedlings, visual disease rating; conditions: for pest or weed control at 200 µg/mL: 144 h, read-out: Test H rating (% disease control)
[4] = wheat leaf rust, preventive, 100 = 100% disease control, 0 = no control relative to controls
[5] = tomato Botrytis, 100 = 100% disease control, 0 = no control relative to controls
[6] = wheat leaf blotch, 100 = 100% disease control, 0 = no control relative to controls
[7] = tomato early blight, 100 = 100% disease control, 0 = no control relative to controls
[8] = wheat powdery mildew, 100 = 100% disease control, 0 = no control relative to controls
[9] = Septoria glume blotch, 100 = 100% disease control, 0 = no control relative to controls
[10] = wheat leaf rust, curative, 100 = 100% disease control, 0 = no control relative to controls
[11] = wheat leaf rust, preventive spray, 100 = 100% disease control, 0 = no control
[12] = tomato Botrytis, preventive spray, 100 = 100% disease control, 0 = no control
[13] = wheat leaf blotch, preventive spray, 100 = 100% disease control, 0 = no control
[14] = tomato early blight, preventive spray, 100 = 100% disease control, 0 = no control
[15] = wheat powdery mildew, preventive spray, 100 = 100% disease control, 0 = no control
[16] = Septoria glume blotch on wheat, preventive spray, 100 = 100% disease control, 0 = no control
[17] = wheat leaf rust, curative spray, 100 = 100% disease control, 0 = no control

Compound | Test I rating (% disease control) [1, 4] [%] | Test B rating (% disease control) (Botrytis cinerea; [5]) [%] | Test G rating (% disease control) (Septoria tritici; [6]) [%] | Test C rating (% disease control) (Alternaria solani; [7]) [%] | Test J rating (% disease control) [2, 8] [%] | Test F rating (% disease control) (Septoria nodorum; [9]) [%] | Test H rating (% disease control) [3, 10] [%] | also measured
Cc1nn(C)c(Oc2c(F)cc(C#N)cc2F)c1-c1ccc(F)cc1Br [Compound 232, 4-[[4-(2-bromo-4-fluorophenyl)-1,3-dimethyl-1H-pyrazol-5-yl]oxy]-3,5-difluorobenzonitrile] | – | – | – | – | – | – | – | pest or weed control at 200 µg/mL [1]: 100%; pest or weed control at 200 µg/mL (Botrytis cinerea): 100%; pest or weed control at 200 µg/mL (Septoria tritici): 100%; pest or weed control at 200 µg/mL (Alternaria solani): 99%; pest or weed control at 200 µg/mL [2]: 100%; pest or weed control at 200 µg/mL (Septoria nodorum): 99%; pest or weed control at 200 µg/mL [3]: 0%
Cc1nn(C)c(Oc2ncc(C(F)(F)F)cc2F)c1-c1ccc(F)cc1Br [compound 260] | 0 | 0 | 0 | 0 | 0 | 0 | 0 | –
CCOC(=O)Cn1nc(C)c(-c2c(F)cc(F)cc2F)c1Oc1c(F)cc([N+](=O)[O-])cc1F [compound 65] | – | – | – | – | – | – | – | Test I rating (% disease control) [1, 11]: 58%; Test B rating (% disease control) (Botrytis cinerea; [12]): 0%; Test G rating (% disease control) (Septoria tritici; [13]): 1%; Test C rating (% disease control) (Alternaria solani; [14]): 0%; Test J rating (% disease control) [2, 15]: 0%; Test F rating (% disease control) (Septoria nodorum; [16]): 0%; Test H rating (% disease control) [3, 17]: 0%
Cc1ccc(Oc2c(-c3c(F)cc(F)cc3F)c(C)nn2C)cc1C#N [compound 250] | 86 | 98 | 77 | 0 | 100 | 0 | 0 | –
Cc1nn(C)c(Nc2c(F)cc(F)cc2Cl)c1-c1c(F)cccc1Cl [compound 298] | 100 | 100 | 100 | 93 | 100 | 87 | 0 | –
Cc1nn(C)c(Nc2ccc(C#N)cc2F)c1-c1c(F)cc(F)cc1F [compound 120] | – | – | – | – | – | – | – | Test I rating (% disease control) [1, 11]: 99%; Test B rating (% disease control) (Botrytis cinerea; [12]): 100%; Test G rating (% disease control) (Septoria tritici; [13]): 100%; Test C rating (% disease control) (Alternaria solani; [14]): 99%; Test J rating (% disease control) [2, 15]: 99%; Test F rating (% disease control) (Septoria nodorum; [16]): 94%; Test H rating (% disease control) [3, 17]: 0%
Cc1nn(C)c(Nc2ccc(F)cc2F)c1-c1cccc(F)c1F [compound 202] | 28 | 99 | 99 | 0 | 99 | 0 | 0 | –
COc1cc(F)c(-c2c(C)nn(C)c2Nc2c(Cl)cc(OC)cc2OC)c(F)c1 [compound 59] | – | – | – | – | – | – | – | Test I rating (% disease control) [1, 11]: 68%; Test B rating (% disease control) (Botrytis cinerea; [12]): 94%; Test G rating (% disease control) (Septoria tritici; [13]): 88%; Test C rating (% disease control) (Alternaria solani; [14]): 0%; Test J rating (% disease control) [2, 15]: 0%; Test F rating (% disease control) (Septoria nodorum; [16]): 0%; Test H rating (% disease control) [3, 17]: 0%
Cc1nn(C)c(Oc2ccc(Cl)c(F)c2)c1-c1c(F)cc(F)cc1F [compound 129] | – | – | – | – | – | – | – | Test I rating (% disease control) [1, 11]: 0%; Test B rating (% disease control) (Botrytis cinerea; [12]): 99%; Test G rating (% disease control) (Septoria tritici; [13]): 96%; Test C rating (% disease control) (Alternaria solani; [14]): 0%; Test J rating (% disease control) [2, 15]: 0%; Test F rating (% disease control) (Septoria nodorum; [16]): 0%; Test H rating (% disease control) [3, 17]: 0%
Cc1nn(C)c(Nc2c(F)cc(F)cc2F)c1-c1c(F)cccc1F [compound 300] | 99 | 100 | 100 | 99 | 100 | 82 | 9 | –
Cc1nn(C)c(Nc2c(F)cc(F)cc2F)c1-c1c(F)cccc1Cl [compound 191] | 97 | 98 | 100 | 100 | 99 | 0 | 0 | –
Cc1nn(C)c(Oc2cc(F)cc(C#N)c2)c1-c1ccc(F)cc1Cl [compound 116] | – | – | – | – | – | – | – | Test I rating (% disease control) [1, 11]: 97%; Test B rating (% disease control) (Botrytis cinerea; [12]): 100%; Test G rating (% disease control) (Septoria tritici; [13]): 100%; Test C rating (% disease control) (Alternaria solani; [14]): 94%; Test J rating (% disease control) [2, 15]: 99%; Test F rating (% disease control) (Septoria nodorum; [16]): 73%; Test H rating (% disease control) [3, 17]: 16%
Cc1nn(C)c(Nc2c(F)cc(F)cc2F)c1-c1ccc(F)cc1Br [Compound 266, 4-(2-bromo-4-fluorophenyl)-1,3-dimethyl-N-(2,4,6-trifluorophenyl)-1H-pyrazol-5-amine] | – | – | – | – | – | – | – | pest or weed control at 200 µg/mL [1]: 100%; pest or weed control at 200 µg/mL (Botrytis cinerea): 100%; pest or weed control at 200 µg/mL (Septoria tritici): 100%; pest or weed control at 200 µg/mL (Alternaria solani): 100%; pest or weed control at 200 µg/mL [2]: 100%; pest or weed control at 200 µg/mL (Septoria nodorum): 98%; pest or weed control at 200 µg/mL [3]: 0%
Cc1nn(C)c(Oc2ncc(F)cc2F)c1-c1ccc(F)cc1Cl [compound 189] | 99 | 99 | 100 | 100 | 98 | 80 | 99 | –
Cc1nn(C)c(Nc2c(F)cc(C#N)cc2F)c1-c1ccc(F)cc1F [compound 290] | 100 | 100 | 100 | 99 | 100 | 87 | 0 | –
Cc1nn(C)c(Nc2c(F)cccc2F)c1-c1ccc(F)cc1F [compound 256] | 99 | 99 | 100 | 99 | 100 | 96 | 0 | –
Cc1nn(C)c(Nc2c(F)cc(F)cc2F)c1-c1ccc(F)cc1F [Compound 41, 4-(2,4-difluorophenyl)-1,3-dimethyl-N-(2,4,6-trifluorophenyl)-1H-pyrazol-5-amine] | – | – | – | – | – | – | – | pest or weed control at 200 µg/mL [1]: 100%; pest or weed control at 200 µg/mL (Botrytis cinerea): 100%; pest or weed control at 200 µg/mL (Septoria tritici): 94%; pest or weed control at 200 µg/mL (Alternaria solani): 99%; pest or weed control at 200 µg/mL [2]: 99%; pest or weed control at 200 µg/mL (Septoria nodorum): 90%; pest or weed control at 200 µg/mL [3]: 0%
Cc1nn(C)c(Nc2c(F)cc(F)cc2F)c1-c1ccc(Cl)cc1 [compound 28] | – | – | – | – | – | – | – | Test I rating (% disease control) [1, 11]: 91%; Test B rating (% disease control) (Botrytis cinerea; [12]): 99%; Test G rating (% disease control) (Septoria tritici; [13]): 96%; Test C rating (% disease control) (Alternaria solani; [14]): 0%; Test J rating (% disease control) [2, 15]: 0%; Test F rating (% disease control) (Septoria nodorum; [16]): 0%; Test H rating (% disease control) [3, 17]: 7%
Cc1nn(C)c(Oc2c(F)cc(C#N)cc2F)c1-c1cc(Cl)ccc1Cl [compound 275] | 97 | 97 | 99 | 46 | 99 | 0 | 8 | –
Cc1nn(C)c(Oc2ccc(C#N)cc2F)c1-c1c(F)cccc1Cl [compound 342] | – | – | – | – | – | – | – | Test I disease control rating ([1]; wheat leaf rust, sprayed the day before inoculation, 100 = 100% disease control, 0 = no disease control relative to controls): 100%; Test B disease control rating (Botrytis cinerea; tomato Botrytis, 100 = 100% disease control, 0 = no disease control relative to controls): 100%; Test G disease control rating (Septoria tritici; wheat leaf blotch, sprayed the day before inoculation, 100 = 100% disease control, 0 = no disease control relative to controls): 100%; Test C disease control rating (Alternaria solani; tomato early blight, 100 = 100% disease control, 0 = no disease control relative to controls): 33%; Test J disease control rating ([2]; wheat powdery mildew, sprayed the day before inoculation, 100 = 100% disease control, 0 = no disease control relative to controls): 100%; Test F disease control rating (Septoria nodorum; Septoria glume blotch on wheat, 100 = 100% disease control, 0 = no disease control relative to controls): 99%; Test H disease control rating ([3]; wheat leaf rust, sprayed after inoculation, 100 = 100% disease control, 0 = no disease control relative to controls): 0%
Cc1nn(C)c(Nc2ccc(F)cc2F)c1-c1ccc(F)cc1F [compound 230] | 97 | 99 | 100 | 99 | 100 | 0 | 0 | –
